Source: US20100184809A1, “Heterocyclic FXR Binding Compounds” (PHENEX PHARMACEUTICALS AG, priority 2006, published 2010)
pIC50: −log10 of the molar value. In brackets after ≈: the same amount, converted by molar mass.

Columns and labels:
[1] = target: T1, human FXRalpha ligand binding domain (LBD) (Homo sapiens, UniProt Q96RI1); assay: FRET activity assay (ligand mediated cofactor peptide interaction, LANCE); format: biochemical; conditions: GST-FXR-LBD / biotinylated SRC-1 peptide (676-700)
T1 construct: made in house; host or cells: E. coli BL21(DE3), vector pDEST15
T1 sequence (Q96RI1 187-472 isoform Q96RI1-2): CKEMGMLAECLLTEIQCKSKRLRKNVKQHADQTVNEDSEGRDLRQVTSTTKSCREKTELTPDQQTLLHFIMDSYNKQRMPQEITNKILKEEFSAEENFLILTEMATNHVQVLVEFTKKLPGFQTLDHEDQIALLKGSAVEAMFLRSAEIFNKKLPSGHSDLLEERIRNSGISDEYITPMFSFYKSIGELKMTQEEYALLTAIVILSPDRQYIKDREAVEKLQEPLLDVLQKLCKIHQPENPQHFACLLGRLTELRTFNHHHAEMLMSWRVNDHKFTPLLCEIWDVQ
Experimental: Determination of a ligand mediated cofactor peptide interaction to quantify ligand binding to the nuclear receptor Farnesoid X Receptor (FXR) was performed as follows:
Preparation of human farnesoid X receptor (FXR) alpha ligand binding domain: The human FXRalpha ligand binding domain (LBD) was expressed in E. coli strain BL21(DE3) as an N-terminally glutathione-[…] (GST) tagged fusion protein. The DNA encoding the FXR ligand binding domain was cloned into vector pDEST15 (Invitrogen). Expression was under control of an IPTG inducible T7 promoter. The amino acid boundaries of the ligand binding domain were amino acids 187-472 of Database entry NM_005123 (RefSeq). Expression and purification of the FXR-LBD: An overnight preculture of a transformed E. coli strain was diluted 1:20 in LB-Ampicillin medium and grown at 30° C. to an optical density of OD600=0.4-0.6. Gene expression was then induced by addition of 0.5 mM IPTG. Cells were incubated an additional 6 h at 30° C., 180 rpm. Cells were collected by centrifugation (7000×g, 7 min, room temperature). Per liter of original cell culture, cells were resuspended in 10 ml lysis buffer (50 mM Glucose, 50 mM Tris pH 7.9, 1 mM EDTA and 4 mg/ml lysozyme) and left on ice for 30 min. Cells were then subjected to sonication and cell debris removed via centrifugation (22000×g, 30 min, 4° C.). Per 10 ml of supernatant 0.5 ml prewashed Glutathione 4B sepharose slurry (Qiagen) was added and the suspension kept slowly rotating for 1 h at 4° C. Glutathione 4B sepharose beads were pelleted by centrifugation (2000 g, 15 sec, 4° C.) and washed twice in wash buffer (25 mM Tris, 50 mM KCl, 4 mM MgCl2 and 1M NaCl). The pellet was resuspended in 3 ml elution buffer per liter of original culture (elution buffer: 20 mM Tris, 60 mM KCl, 5 mM MgCl2 and 80 mM glutathione added immediately prior to use as powder). The suspension was left rotating for 15 min at 4° C., the beads pelleted and eluted again with half the volume of elution buffer than the first time. The eluates were pooled and dialysed overnight in 20 mM Hepes buffer (pH 7.5) containing 60 mM KCl, 5 mM MgCl2 as well as 1 mM dithiothreitol and 10% (v/v) glycerol. The protein was analysed by SDS-Page.
The method measures the ability of putative ligands to modulate the interaction between the purified bacterial expressed FXR ligand binding domain (LBD) and a synthetic biotinylated peptide based on residues 676-700 of SRC-1 (LCD2, 676-700). The sequence of the peptide used was B-[…]-COOH where the N-terminus was biotinylated (B). The ligand binding domain (LBD) of FXR was expressed as fusion protein with GST in BL-21 cells using the vector pDEST15. Cells were lysed by sonication, and the fusion proteins purified over glutathione sepharose (Pharmacia) according to the manufacturers instructions. For screening of compounds for their influence on the FXR-peptide interaction, the Perkin Elmer LANCE technology was applied. This method relies on the binding dependent energy transfer from a donor to an acceptor fluorophor attached to the binding partner of interest. For ease of handling and reduction of background from compound fluorescence LANCE technology makes use of generic fluorophore labels and time resolved detection Assays were done in a final volume of 2 5 μl in a 384 well plate, in a Tris-based buffer (20 mM Tris-HCl pH 7,5; 60 mM KCl, 5 mM MgCl2; 35 ng/μl BSA), containing 20-60 ng/well recombinantly expressed FXR-LBD fused to GST, 200-600 nM N-terminally biotinylated peptide, representing SRC1 aminoacids 676-700, 200 ng/well Streptavidin-xIAPC conjugate(Prozyme) and 6-10 ng/well Eu W1024 antiGST (Perkin Elmer). DMSO content of the samples was kept at 1%. After generation of the assay mix and diluting the potentially FXR modulating ligands, the assay was equilibrated for one hour in the dark at room temperature in FIA-plates black 384 well (Greiner). […]

[2] = Aqueous solubility assay, Protocol B, shake-flask method; format: physicochemical; conditions: aqueous buffer, 10 mM PBS buffer pH 7.4, 1% MeOH, room temperature, read-out: Aqueous solubility pH 7.4 (μM) (±standard deviation), shake-flask method
Experimental: Protocol B, shake-flask method:
Sample preparation: Sample and standard solution preparation is performed by mixing equal volumes of acetonitrile containing the internal standard (1 μM final concentration) with sample and calibration standard solutions (100 μl). After vigorously shaking (10 seconds) the samples are centrifuged (6000 g) for 5 minutes at 20° C. Aliquots of the particle-free supernatants are transferred to 200 μl sample vials and subsequently subjected to LC-MS/MS. Assay procedure: Test concentration was 100 μM in 10 mM PBS buffer pH 7.4 with a final MeOH concentration of 1%. The volume of the incubation solution was 500 μl. Depending on each compound's solubility in MeOH, the stock concentration and the incubation concentration was adapted. The test solutions in quadruplicates were shaken at 300 rpm over a 20 hours period at room temperature, followed by centrifugation at 20000 g for 30 minutes to separate the solid phase. 100 μl of particle free sample are added to 100 μl acetonitrile containing the internal standard. The aqueous solubility of the compounds was determined by measuring the concentration of the PBS buffer supernatant by HPLC-MS/MS.

[3] = Plasma protein binding assay (equilibrium dialysis); format: in vitro ADME; conditions: 37° C., extrapolated fraction unbound
Experimental: Equilibrium dialysis is used to determine the extent of binding of a compound to plasma proteins. A semi-permeable membrane separates a protein-containing compartment from a protein-free compartment. The system is allowed to equilibrate at 37° C. The test compound present in each compartment is quantified by LC-MS/MS. The extent of binding is reported as a fraction unbound (fu) value which is calculated as fu=1−(PC−PF)/PC. PC=Test compound concentration in protein-containing compartment. PF=Test compound concentration in protein-free compartment. In addition to using whole plasma, the plasma protein binding assay can be performed using two other ratios of plasma (10% or 50% plasma in buffer v/v). The following equations are used to convert from a fraction unbound at 10% or 50% to a fraction unbound at 100%: […]

[4] = Rat microsomal stability assay; format: in vitro ADME; conditions: liver microsomes, 37° C., NADPH, 45 minute, read-out: Rat liver microsome clearance
Experimental: Compound stability towards rat liver microsomes was determined as follows: The microsomes are incubated with the test compound at 37° C. in the presence of the co-factor, NADPH, which initiates the reaction. The reaction is terminated by the addition of methanol. Following centrifugation, the supernatant is analysed on the LC-MS/MS. The disappearance of test compound is monitored over a 45 minute time period. The In peak area ratio (compound peak area/internal standard peak area) is plotted against time and the gradient of the line determined. Finally, Intrinsic clearance CLint is computed by the following equations: elimination rate konstant (k)=−gradient; t1/2 (min)=0.693/k; V (μl/mg)=volume of incubation (μl)/protein in incubation (mg); CLint (μl/min/mg protein)=V*0.693/t1/2.

[5] = Rat hepatocyte stability assay; format: in vitro ADME; conditions: hepatocytes, 37° C., 60 minute, read-out: Rat hepatocyte clearance
Experimental: Compound stability towards rat hepatocytes was determined as follows: The hepatocytes are incubated with the test compound at 37° C. Samples are removed at the appropriate time points into methanol to terminate the reaction. Following centrifugation, the supernatant is analysed by LC-MS/MS. The disappearance of test compound is monitored over a 60 minute time period. The In peak area ratio (compound peak area/internal standard peak area) is plotted against time and the gradient of the line determined. Finally, half life t1/2 and Intrinsic clearance CLint is computed by the following equations: elimination rate konstant (k)=−gradient; t1/2 (min)=0.693/k; V (μl/10^6 cells)=volume of incubation (μl)/number of cells (*10^6); CLint (μl/min/10^6cells protein)=V*0.693/t1/2.

Compound	pIC50 [1]	solubility at 20 h [2]	fraction unbound [3]	microsomal CLint [4]	hepatocyte CLint [5]
CC(C)c1onc(-c2c(Cl)cccc2Cl)c1COc1cnc(N(C)Cc2cccc(C(=O)O)c2)c(Cl)c1 [Example 32, 3-(((3-Chloro-5-((3-(2,6-dichlorophenyl)-5-isopropylisoxazol-4-yl)methoxy)pyridin-2-yl)(methyl)amino)methyl)benzoic acid]	≥ 6.00	129 µM (≈ 72.4 µg/mL)	–	–	–
CC(C)c1onc(-c2c(Cl)cccc2Cl)c1COc1ccc(N(C)C(=O)c2ccc(-c3nnn[nH]3)cc2)c(C(F)(F)F)n1 [Example 25, N-(6-((3-(2,6-Dichlorophenyl)-5-isopropylisoxazol-4-yl)methoxy)-2-(trifluoromethyl)pyridin-3-yl)-N-methyl-4-(1H-tetrazol-5-yl)benzamide]	≥ 6.00	–	0.0004	169 µL/min/mg	2.5 µL/min/1e6 cells
